The subject of the assay is BDF1 mice, P388 leukemia ip, median survival T/C. The assay is described as follows: NCI In Vivo Anticancer Drug Screen. Data for tumor model P388 Leukemia (intraperitoneal) in B6D2F1 (BDF1) mice. Particulars: endpoint: median survival time, higher = longer survival. The procedure, abridged: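 Transplantable tumour in mice; compound vs vehicle dosing; survival scored; ratio of treated to control reported.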

The mark [1] stands for this setting: dose: 12.5 mg/kg/injection, schedule: Q01DX009 (ip), vehicle: saline with Tween-80.
[2] abbreviates: dose: 6.25 mg/kg/injection, schedule: Q01DX009 (ip), vehicle: saline with Tween-80.
The mark [3] stands for this setting: dose: 100.0 mg/kg/injection, schedule: Q04DX003 (ip), vehicle: saline.
Setting [4] is: dose: 200.0 mg/kg/injection, schedule: Q04DX003 (ip), vehicle: saline.
The mark [5] stands for this setting: dose: 50.0 mg/kg/injection, schedule: Q01DX009 (ip), vehicle: saline with Tween-80.
Setting [6] is: dose: 100.0 mg/kg/injection, schedule: Q01DX009 (ip), vehicle: saline with Tween-80.
[7] abbreviates: dose: 200.0 mg/kg/injection, schedule: Q01DX009 (ip), vehicle: saline with Tween-80.
[8] abbreviates: dose: 50.0 mg/kg/injection, schedule: Q01DX009 (ip), vehicle: Klucel (hydroxypropylcellulose) (HPC).
Setting [9] is: dose: 100.0 mg/kg/injection, schedule: Q01DX009 (ip), vehicle: Klucel (hydroxypropylcellulose) (HPC).
Setting [10] is: dose: 200.0 mg/kg/injection, schedule: Q01DX009 (ip), vehicle: Klucel (hydroxypropylcellulose) (HPC).
Setting [11] is: dose: 100.0 mg/kg/injection, schedule: Q04DX003 (ip), vehicle: saline with Tween-80.
The mark [12] stands for this setting: dose: 200.0 mg/kg/injection, schedule: Q04DX003 (ip), vehicle: saline with Tween-80.
The mark [13] stands for this setting: dose: 400.0 mg/kg/injection, schedule: Q04DX003 (ip), vehicle: saline with Tween-80.

Toxic doses and inconclusive results are not listed.

As for `CN=S(=O)(OCCCCOS(=O)(=NC)c1ccccc1)c1ccccc1` (centres undefined), under setting [1], the T/C was 116 % of control.

Regarding `C[N+](C)(CC(=O)Nc1ccc(Cl)c(Cl)c1)Cc1ccc(Cl)c(Cl)c1`, the T/C under setting [2] was 120 % of control and the T/C under setting [1] is 108 % of control.

Turning to `Cc1[nH]c(C)c(C(=O)OC2CCN(C)CC2)c1C`, the T/C (dose: 6.25 mg/kg/injection, schedule: Q04DX003 (ip), vehicle: saline with Tween-80) was 103 % of control; the T/C (dose: 12.5 mg/kg/injection, schedule: Q04DX003 (ip), vehicle: saline with Tween-80) is 100 % of control; the T/C (dose: 25.0 mg/kg/injection, schedule: Q04DX003 (ip), vehicle: saline with Tween-80) was 91 % of control.

Consider `C[C@]12CCC(=O)C=C1CC[C@H]1[C@@H]3C[C@@H](O)[C@](O)(C(=O)CO)[C@@]3(C)C[C@H](O)[C@@]12F`, for which the T/C reads like this: (dose: 100.0 mg/kg/injection, schedule: Q01DX009 (ip), vehicle: saline) 108 % of control; under setting [3], 108 % of control; (dose: 200.0 mg/kg/injection, schedule: Q01DX009 (ip), vehicle: saline) 87 % of control; under setting [4], 116 % of control; (dose: 400.0 mg/kg/injection, schedule: Q04DX003 (ip), vehicle: saline) 100 % of control.

With `CN(C)P(=S)(N(C)C)N1CCC1`, the T/C under setting [5] is 96 % of control, the T/C under setting [6] is 90 % of control and the T/C under setting [7] was 109 % of control.

In the case of `CC1CN1P(=O)(N1CC=CCC1)N1CC1C` (centres undefined), the T/C was 112 % of control (dose: 9.38 mg/kg/injection, schedule: Q01DX009 (ip), vehicle: saline); 116 % of control (dose: 18.7 mg/kg/injection, schedule: Q01DX009 (ip), vehicle: saline); 162 % of control (dose: 50.0 mg/kg/injection, schedule: Q01DX009 (ip), vehicle: saline); 91 % of control (dose: 75.0 mg/kg/injection, schedule: Q01DX009 (ip), vehicle: saline); 107 % of control under setting [3].

Turning to `CO[C@H](C)[C@](O)(C(=O)OCC1=CC[N+]2([O-])CC[C@H](O)[C@@H]12)C(C)C` (some centres undefined), the T/C reads like this: (dose: 40.0 mg/kg/injection, schedule: Q01DX010 (ip), vehicle: saline) 100 % of control; (dose: 80.0 mg/kg/injection, schedule: Q01DX010 (ip), vehicle: saline) 105 % of control; (dose: 160.0 mg/kg/injection, schedule: Q01DX010 (ip), vehicle: saline) 116 % of control; (dose: 200.0 mg/kg/injection, schedule: Q01DX007 (ip), vehicle: water) 117 % of control; (dose: 400.0 mg/kg/injection, schedule: Q01DX007 (ip), vehicle: water) 119 % of control; (dose: 800.0 mg/kg/injection, schedule: Q01DX007 (ip), vehicle: water) 119 % of control. For the same compound, for the setting “dose: 1600.0 mg/kg/injection, schedule: Q01DX007 (ip), vehicle: water”, the T/C was 94 % of control.

As for `CCN(CC)c1ccc(C2NC(=O)c3ccccc3N2)cc1` (centres undefined), the T/C is, setting by setting: (dose: 25.0 mg/kg/injection, schedule: Q01DX009 (ip), vehicle: Klucel (hydroxypropylcellulose) (HPC)) 110 % of control; under setting [8], 120 % of control; under setting [9], 95 % of control.

With `FC(F)(F)c1cc(NC2=NCCN=C(Nc3cc(C(F)(F)F)cc(C(F)(F)F)c3)SS2)cc(C(F)(F)F)c1`, the T/C is, setting by setting: under setting [8], 102 % of control; under setting [9], 96 % of control; under setting [10], 110 % of control.

For `Cc1cc(S(=O)(=O)c2ccc(Cl)c(C)c2)ccc1Cl`, the T/C is 105 % of control under setting [5], 100 % of control under setting [6] and 91 % of control under setting [7].

In the case of `CO[C@H]1C[C@H](O[C@H]2CC[C@]3(C=O)[C@H]4CC[C@]5(C)[C@@H](C6=CC(=O)OC6)CC[C@]5(O)[C@@H]4CC[C@]3(O)C2)O[C@H](C)[C@H]1O[C@@H]1O[C@H](CO)[C@@H](O)[C@H](O)[C@H]1O`, the T/C reads like this: (dose: 0.25 mg/kg/injection, schedule: Q01DX009 (ip), vehicle: saline) 104 % of control; (dose: 0.25 mg/kg/injection, schedule: Q04DX003 (ip), vehicle: saline) 91 % of control; (dose: 0.5 mg/kg/injection, schedule: Q01DX009 (ip), vehicle: saline) 100 % of control; (dose: 0.5 mg/kg/injection, schedule: Q04DX003 (ip), vehicle: saline) 104 % of control; (dose: 1.0 mg/kg/injection, schedule: Q01DX009 (ip), vehicle: saline) 90 % of control; (dose: 1.0 mg/kg/injection, schedule: Q01DX010 (ip), vehicle: saline) 95 % of control. Also, the T/C was 100 % of control (dose: 1.0 mg/kg/injection, schedule: Q04DX003 (ip), vehicle: saline) and 100 % of control (dose: 2.0 mg/kg/injection, schedule: Q04DX003 (ip), vehicle: saline).

As for `CCCCCCCCCCN1CCOCCOCCN(CCCCCCCCCC)CCOCCOCC1`, the T/C reads like this: (dose: 1.56 mg/kg/injection, schedule: Q01DX005 (ip), vehicle: saline with Tween-80) 113 % of control; (dose: 3.13 mg/kg/injection, schedule: Q01DX005 (ip), vehicle: saline with Tween-80) 103 % of control; (dose: 6.25 mg/kg/injection, schedule: Q01DX005 (ip), vehicle: saline with Tween-80) 113 % of control.

For the compound `CN(CCC#N)C1=CCCC1`, the T/C runs as follows: (dose: 50.0 mg/kg/injection, schedule: Q04DX003 (ip), vehicle: saline) 100 % of control; under setting [3], 100 % of control; under setting [4], 100 % of control.

`CC#CC(=O)O`: the T/C under setting [1] was 100 % of control; the T/C (dose: 25.0 mg/kg/injection, schedule: Q01DX009 (ip), vehicle: saline with Tween-80) was 106 % of control; the T/C under setting [5] was 109 % of control; the T/C under setting [6] was 106 % of control.

For `CCCCCCCCCCCC(=O)Nc1ccc(C(=O)OCC)cc1`, the T/C is 91 % of control (dose: 100.0 mg/kg/injection, schedule: Q01DX001 (ip), vehicle: saline with Tween-80); 87 % of control (dose: 200.0 mg/kg/injection, schedule: Q01DX001 (ip), vehicle: saline with Tween-80); 91 % of control (dose: 400.0 mg/kg/injection, schedule: Q01DX001 (ip), vehicle: saline with Tween-80).

With `Cc1nc2c(NC(=O)C(F)(F)F)nn(C)c2nc1C`, the T/C was 100 % of control under setting [11], 104 % of control under setting [12] and 100 % of control under setting [13].

Take `OCCSc1ncc2cnccn12`: the T/C was 109 % of control (dose: 100.0 mg/kg/injection, schedule: Q04DX003 (ip), vehicle: water); 109 % of control (dose: 200.0 mg/kg/injection, schedule: Q04DX003 (ip), vehicle: water); 109 % of control (dose: 400.0 mg/kg/injection, schedule: Q04DX003 (ip), vehicle: water).

Take `CCCCCOc1cc(C(=O)NN)nc(C(=O)NN)c1`: the T/C is, setting by setting: (dose: 1.56 mg/kg/injection, schedule: Q01DX009 (ip), vehicle: saline with Tween-80) 103 % of control; (dose: 3.13 mg/kg/injection, schedule: Q01DX009 (ip), vehicle: saline with Tween-80) 111 % of control; under setting [2], 111 % of control; under setting [1], 116 % of control.

In the case of `CCOP(=O)(OCC)ON1C(=O)c2cccc3cccc(c23)C1=O`, the T/C (dose: 0.78 mg/kg/injection, schedule: Q01DX009 (ip), vehicle: Klucel (hydroxypropylcellulose) (HPC)) was 97 % of control and the T/C (dose: 1.56 mg/kg/injection, schedule: Q01DX009 (ip), vehicle: Klucel (hydroxypropylcellulose) (HPC)) was 99 % of control.

`COC(=O)CC(C)Cc1ccc(OC)c(OC)c1` (centres undefined): the T/C is 104 % of control under setting [6]; 95 % of control under setting [11]; 112 % of control under setting [7]; 109 % of control under setting [12]; 109 % of control under setting [13].

Consider `CCOC(=O)C(c1cccc(OC)c1)C1(C(=O)OCC)CC2(CCC1=O)OCCO2` (centres undefined), for which the T/C (dose: 50.0 mg/kg/injection, schedule: Q01DX001 (ip), vehicle: saline sonified) was 104 % of control; the T/C (dose: 100.0 mg/kg/injection, schedule: Q01DX001 (ip), vehicle: saline sonified) was 100 % of control; the T/C (dose: 200.0 mg/kg/injection, schedule: Q01DX001 (ip), vehicle: saline sonified) was 100 % of control.

On to `COC(=O)C(Br)C(OC)c1ccccc1` (centres undefined), for which the T/C by setting is: under setting [9], 91 % of control; under setting [10], 95 % of control; (dose: 400.0 mg/kg/injection, schedule: Q01DX009 (ip), vehicle: Klucel (hydroxypropylcellulose) (HPC)) 95 % of control.

Source of the values: PubChem BioAssay AID328 (DTP/NCI, 2004).
